Measured values: patent US20090263410A1, “USE OF TGF-B1 INHIBITOR PEPTIDES IN THE PREPARATION OF AN IMMUNE RESPONSE MODULATING AGENT” (Proyecto De Biomedicina Cima, S.L., priority 2005, published 2009)

What was measured:
[1] = test system: dendritic cells derived from splenocytes; assay: Surface markers of splenocyte-derived dendritic cells by flow cytometry; type: cell-based, C57 mouse; conditions: incubation 72 hours; p144 50 μg/ml or anti (TGF-β) antibody 20 μg/ml; medium with GM-CSF+TGF-β1
Experimental: After sacrificing an 8-week old male C57 mouse, its spleen was extracted in sterile conditions and it was homogenised on a plate with clean medium to produce a cell suspension. The cells were centrifuged for 5 minutes at 1000 rpm and the cell sediment obtained was resuspended with 1 ml/spleen of ACK lysis solution (0.15M NH4Cl, 1 mM KHCO3, […] sodium salt-EDTA solution, pH 7.2-7.4) for 1 minute at 37° C. Next, the cells were centrifuged and washed with 10 ml of cold R10 medium (RPMI-1640, 10% FBS, Glutamine, 2×10^−5 M 2-Mercaptoethanol) to centrifuge and wash once more. Finally, the cells were resuspended in 50 ml of R10 medium. 6-well plates were prepared (Costar #3471) treating them with 1 ml per well of R10 medium to differentiate splenocytes from dendritic cells [R10+10 ng/ml of mouse GM-CSF (Peprotec, EC LTD, London, UK)+1 ng/ml of TGF-β1 (RD Systems, Minneapolis, USA)], for 15 minutes at room temperature. Next, 2 ml of the cell suspension were added to each well and they were incubated at 37° C. and 5% CO2. During the first weeks, the medium was changed twice, by the elimination of 1 ml of supernatant and the addition of 1 ml of fresh medium (R10+GM-CSF+TGF-β1) for dendritic cells. After these two weeks, the medium was separated. 1 ml per well of dissociation medium in enzyme-free BPS (GIBCO BRL) was added to the plates, and the medium was incubated at 37° C., then it was removed and 2 ml of tepid medium (R10+GM-CSF+TGF-β1) was added. Next, the cells were lifted with slow pipetting and the lifted cells were centrifuged at 1000 rpm and they were resuspended in fresh medium (R10+GM-CSF+TGF-β1). The cells thus obtained can be reamplified by seeding on a plate, repeating the initial process. […]

[2] = test system: CT26 cells; assay: Pulmonary metastasis model (intravenous CT26), survival; type: in vivo, BALB/c mice; conditions: 5×10^5 CT26 i.v. on day 10; 50 μg AH1 in FIA s.c. day 0; p144 50 μg i.p. alternate days, days 4-20 or 10-20
Source text: It is speculated that the neutralization of TGF-β1, once the immune response has been induced, could have a beneficial effect on the evolution thereof.
It is known from previous experience that immunization with only DTc AH1 produced a certain delay in the appearance of tumours after the intravenous administration of CT26 cells. For this reason, in a survival experiment, the inclusion of p144 was compared at different times after immunization with AH1. Thus, the animals in group (i) just received the administration of CT26 cells, the animal groups (ii), (iii) and (iv) were immunized on day 0 by subcutaneous route with 50 μg of AH1 in FIA (Freund's incomplete adjuvant) and they were then administered 5×10^5 CT26 cells by intravenous route on day 10. Group (iii) further received 50 μg of p144 in 500 μl of PS (physiological serum) by intraperitoneal route on alternate days between days 4 and 20. Group (iv), as with group (iii), received 50 μg of p144 in 500 μl of PS by intraperitoneal route on alternate days, only between days 10 and 20.

[3] = test system: CT26 cells; assay: Protection against growth of CT26 cells after immunization with AH1 + LVQ mixtures; type: in vivo, BALB/c mice; conditions: mice protected/total; immunization mixtures in Freund's incomplete adjuvant; 500,000 CT26 cells subcutaneous
Source text: […] is a peptide which is presented by the MHC-II on the surface of the presenting cell, and a DTc is a peptide which is presented by MHC-I on the surface of the presenting cell and in tumour cells. It is known that the joint immunization of a DTc (AH1 peptide) and a DTh (LVQ peptide), both peptides coming from the gp70 protein of the tumour antigen expressed by CT26 cells, was capable of protecting against the subcutaneous growth of 500,000 CT26 tumour cells. Since TGF-β1 is important in the immune response induction process, we wanted to study the effect of peptide p144 on the induction of the response responsible for protection against the growth of CT26 cells. As is indicated in Table 1, three groups of BALB/c mice were immunized with the following mixtures of Freund's incomplete adjuvant: (i) with AH1 LVQ, (ii) with AH1+LVQ+p144 and (iii) just with Freund's incomplete adjuvant.

p144: peptide inhibiting TGF-β1 whose amino acid sequence corresponds to SEQ ID NO: 1 (TSLDASIIWAMMQN; Synthetic Construct from human TGB-Beta1 type III receptor.Domain730-743)
CD11c expression (fluorescence level) [1]: negative effect
CD80 expression (fluorescence level) [1]: negative effect
MHC I expression (fluorescence level) [1]: negative effect
survival / mortality [2]: reinforces the survival effect
Protection level against the growth of CT26 cells [3]: negative effect on protection
